What is called melting point is the temperature, or range, at which the solid turns liquid.

One data set is described as follows: log p determination. In kind it is physicochemical.
Data set [1] deals with larvae of the mustard beetle (Phaedon cochleariae). Kind of data set: Phaedon larvae test. The conditions noted are these: 168 h, concentration of active compound 0.1 %, cabbage leaves dipped, after 7 d, read-out: Kill rate in % after 7 d. In kind it is in vivo. Here is the method:
Solvent: 7 parts by weight of dimethylformamide Emulsifier: 1 part by weight of alkylaryl polyglycol ether To produce a suitable preparation of active compound, 1 part by weight of active compound is mixed with the stated amount of solvent and the stated amount of emulsifier, and the concentrate is diluted with water to the desired concentration. Cabbage leaves (Brassica oleracea) are treated by being dipped into the preparation of active compound and are populated with larvae of the mustard beetle (Phaedon cochleariae) while the leaves are still moist.

In a further data set the test system is Plasmopara vilicola. Kind of data set: Plasmopara test (grapevine) / protective. In kind it is in vivo. The conditions noted are these: 144 h, application rate 100 g/ha, evaluation 6 days after inoculation, read-out: Efficacy in %. The method, then: (§1) Solvent: 47 parts by weight of acetone
(§2) Emulsifier: 3 parts by weight of alkylaryl polyglycol ether
(§3) To produce a suitable preparation of active compound, 1 part by weight of active compound is mixed with the stated amounts of solvent and emulsifier, and the concentrate is diluted with water to the desired concentration.
To test for the protective activity, young plants are sprayed with the preparation of active compound at the stated application rate. After the spray coating has dried on, the plants are inoculated with an aqueous spore suspension of Plasmopara vilicola and then remain in an incubation cabin at about 20° C. and 100% relative atmospheric humidity for 1 day. The plants are then placed in a greenhouse at about 21° C. and about 90% relative atmospheric humidity for 5 days. The plants are then moistened and placed in an incubation cabin for 1 day.
Evaluation is carried out 6 days after the inoculation. 0% means an efficacy which corresponds to that of the control, whereas an efficacy of 100% means that no infection is observed.

For a further data set, the system named is Podosphaera leucotricha. In words: Podosphaera test (apple) / protective. In kind it is in vivo. The conditions noted are these: application rate 100 g/ha, evaluation 10 days after inoculation. The method, then: as §1, §2, §3
To test for protective activity, young plants are sprayed with the preparation of active compound at the stated application rate. After the spray coating has dried on, the plants are inoculated with an aqueous spore suspension of the causative organism of apple mildew Podosphaera leucotricha. The plants are then placed in a greenhouse at about 23° C. and a relative atmospheric humidity of about 70%.
Evaluation is carried out 10 days after the inoculation. 0% means an efficacy which corresponds to that of the control, whereas an efficacy of 100% means that no infection is observed.

Data set [2] relates to greenhouse red spider mite (Tetranychus urticae). In words: Tetranychus test (OP-resistant/dip treatment). In kind it is in vivo. The conditions noted are these: concentration of active compound 0.01 %, bean plants dipped, OP-resistant. The method, then: (§4) Solvent: 7 parts by weight of dimethylformamide
(§5) Emulsifier: 1 part by weight of alkylaryl polyglycol ether
To produce a suitable preparation of active compound, 1 part by weight of active compound is mixed with the stated amount of solvent and the stated amount of emulsifier, and the concentrate is diluted with emulsifier-containing water to the desired concentrations.
Bean plants (Phaseolus vulgaris) which are heavily infested by all stages of the greenhouse red spider mite (Tetranychus urticae) are dipped into a preparation of active compound of the desired concentration.
After the desired period of time, the effect in % is determined. 100% means that all spider mites have been killed; 0% means that none of the spider mites have been killed.

Data set [3] relates to larvae of the green rice leafhopper (Nephotettix cincticeps). In words: Nephotettix test. In kind it is in vivo. The conditions noted are these: concentration of active compound 0.1 %, rice seedlings dipped. Here is the method:
as §4, §5
(§6) To produce a suitable preparation of active compound, 1 part by weight of active compound is mixed with the stated amount of solvent and the stated amount of emulsifier, and the concentrate is diluted with water to the desired concentration.
Rice seedlings (Oryza sativa) are treated by being dipped into the preparation of active compound of the desired concentration and are populated with larvae of the green rice leafhopper (Nephotettix cincticeps) while the seedlings are still moist.
After the desired period of time, the kill in % is determined. 100% means that all leaf hoppers have been killed; 0% means that none of the leaf hoppers have been killed.

Data set [4] relates to Erysiphe graminis f.sp. tritici. Kind of data set: Erysiphe test (wheat) / protective. In kind it is in vivo. The conditions noted are these: evaluation 7 days after inoculation. The method, then: Solvent: 25 parts by weight of N,N-dimethylacetamide
Emulsifier: 0.6 part by weight of alkylaryl polyglycol ether
as §3
To test for protective activity, young plants are sprayed with the preparation of active compound at the stated application rate.
After the spray coating has dried on, the plants are dusted with spores von Erysiphe graminis f.sp. tritici.
The plants are placed in a greenhouse at a temperature of about 20° C. and a relative atmospheric humidity of about 80% to promote the development of mildew pustules.
Evaluation is carried out 7 days after the inoculation. 0% means an efficacy which corresponds to that of the control, whereas an efficacy of 100% means that no infection is observed.

For data set [5], the system named is caterpillars of the army worm Spodoptera frugiperda. Kind of data set: Spodoptera frugiperda test. In kind it is in vivo. The conditions noted are these: concentration of active compound 0.1 %, cabbage leaves dipped. Here is the method:
as §4, §5, §6
Cabbage leaves (Brassica oleracea) are treated by being dipped into the preparation of active compound of the desired concentration and are populated with caterpillars of the army worm Spodoptera frugiperda while the leaves are still moist.
After the desired period of time, the effect in % is determined. 100% means that all caterpillars have been killed; 0% means that none of the caterpillars have been killed.

Setting [6] is: pH 2.3, pH 2.3, for Example 1 two values for the two isomers, read-out: log p (pH 2.3).
Where [7] appears, read: acidic, isomer mixtures, the higher log p value is stated, Table 13, read-out: log p (acidic).

Like-named read-outs stand apart in the source and are kept apart here.

With `CC(=O)c1ccc(CC(=O)Nc2snc(C)c2Cl)cc1`, the logP in “log p determination” (setting [6]) turned out to be 2.12.

For `CCCCCCCCC1COC(C)(c2ccc(CC(=O)Nc3snc(C)c3Cl)cc2)O1` (centres unmarked) [Example 1], the logP in the data set “log p determination” (setting [6]) was 5.84. Moreover, the “log p (pH 2.3)” value in “log p determination” (pH 2.3, for Example 1 two values for the two isomers) is given as 6.05. In data set [1], the pest or weed control at 0.1 % was determined as 100%.

`Cc1nsc(NC(=O)Cc2ccc(C3(C)OCC(c4ccccc4)O3)cc2)c1Cl` (centres unmarked) [Example 3]: the pest or weed control at 100 g/ha with Plasmopara vilicola was found to be 99%. Also, the logP in “log p determination” (setting [7]) turned out to be 3.83. Further, the pest or weed control at 0.1 % in [1] came to 100%. The Efficacy in % in the data set with Podosphaera leucotricha turned out to be 99%. Further, the “Kill rate in % after 7 d” value in data set [2] is listed as 100%.

On to `C=CCOCC1COC(C)(c2ccc(CC(=O)Nc3snc(C)c3Cl)cc2)O1` (centres unmarked) [Example 4], for which the pest or weed control at 100 g/ha with Plasmopara vilicola turned out to be 100%. In the data set “log p determination” (setting [7]), the logP was 3.23. The “Kill rate in % after 7 d” value in data set [2] is on record as 100%.

For `Cc1nsc(NC(=O)Cc2ccc(C3(C)OCC(C(C)(C)C)O3)cc2)c1Cl` (centres unmarked) [Example 5], the logP in the data set “log p determination” (setting [7]) came to 4. The “Kill rate in % after 6 d” value in [3] came to 100%. Moreover, the “Kill rate in % after 7 d” value in data set [2] is reported as 100%.

With `Cc1nsc(NC(=O)Cc2ccc(C3(C)OCC(CCl)O3)cc2)c1Cl` (centres unmarked) [Example 6], in the data set on Plasmopara vilicola, the pest or weed control at 100 g/ha is 100%. In addition, the logP in the data set “log p determination” (setting [7]) came out at 3.09. In addition, the pest or weed control at 0.1 % in data set [1] is 100%. Moreover, the “Kill rate in % after 6 d” value in data set [3] was found to be 100%.

Turning to `CCC1COC(C)(c2ccc(CC(=O)Nc3snc(C)c3Cl)cc2)O1` (centres unmarked) [Example 7], the pest or weed control at 100 g/ha in the data set on Plasmopara vilicola worked out at 100%. The values for the Efficacy in % (in data set [4] (application rate 1000 g/ha); with Podosphaera leucotricha) were 81% and 97%, respectively. Also, the logP in “log p determination” (setting [7]) was 3.23. For the same molecule, the pest or weed control at 0.1 % in data set [1] is 100%. Besides, in data set [5], the “Kill rate in % after 7 d” value came to 100%. Further, in [3], the “Kill rate in % after 6 d” value is given as 100%.

Regarding `CC=CCCCC1COC(C)(c2ccc(CC(=O)Nc3snc(C)c3Cl)cc2)O1` (centres unmarked) [Example 8], in the data set with Plasmopara vilicola, the pest or weed control at 100 g/ha was 97%. Moreover, the Efficacy in % in [4] (application rate 500 g/ha) is 81%; in the data set with Podosphaera leucotricha it was 95%. Moreover, the logP in the data set “log p determination” (setting [7]) is 4.4. The pest or weed control at 0.1 % in data set [1] worked out at 100%. For the same molecule, the “Kill rate in % after 7 d” value in data set [5] and in data set [2] was 100% each time.

In the case of `Cc1nsc(NC(=O)Cc2ccc(C3(C)OCC(COc4ccc(Cl)cc4)O3)cc2)c1Cl` (centres unmarked) [Example 9], the pest or weed control at 100 g/ha in the data set with Plasmopara vilicola came to 100%. Also, in the data set “log p determination” (setting [7]), the logP turned out to be 4.24. For the same molecule, the pest or weed control at 0.1 % in data set [1] stood at 100%. Moreover, the Efficacy in % in the data set on Podosphaera leucotricha was 97%.

Turning to `Cc1nsc(NC(=O)Cc2ccc(C3(C)OCC(c4cccc(Cl)c4)O3)cc2)c1Cl` (centres unmarked) [Example 15], in the data set with Plasmopara vilicola, the pest or weed control at 100 g/ha was 97%. Also, the logP in the data set “log p determination” (setting [7]) amounted to 4.32.

As for `Cc1nsc(NC(=O)Cc2ccc(C3(C)OCC(c4ccc(Cl)c(Cl)c4)O3)cc2)c1Cl` (centres unmarked) [Example 16], in the data set “log p determination” (setting [7]), the logP is 4.82. For the same molecule, the pest or weed control at 0.1 % in data set [1] was determined as 100%.

In the case of `Cc1nsc(NC(=O)Cc2ccc(C3(C)OCC(c4ccc(Cl)cc4)O3)cc2)c1Cl` (centres unmarked) [Example 17], the pest or weed control at 100 g/ha in the data set with Plasmopara vilicola stood at 97%. In addition, the logP in the data set “log p determination” (setting [7]) stood at 4.35. In addition, in data set [1], the pest or weed control at 0.1 % worked out at 100%. In the data set on Podosphaera leucotricha, this molecule showed an Efficacy in % of 99%. Besides, the “Kill rate in % after 7 d” value in data set [5] came to 100%.

Regarding `Cc1nsc(NC(=O)Cc2ccc(C3(C)OCC(CBr)(CBr)CO3)cc2)c1Cl` [Example 20], in the data set on Plasmopara vilicola, the pest or weed control at 100 g/ha was determined as 96%. In “log p determination” (setting [7]), the logP amounted to 4.21. Moreover, in data set [5], the “Kill rate in % after 7 d” value amounted to 100%. Moreover, the “Kill rate in % after 6 d” value in data set [3] came to 100%.

As to `CC(=O)c1cccc(CC(=O)Nc2nc(C)ns2)c1` [Example 29, 5-[3(-acetylphenyl)acetaminol]-3-methyl-1,2,4-thiadiazole], the melting point lay in the range of 91 to 98 °C. In “log p determination” (setting [6]), the logP was 1.56.

Molecule `CCc1nsc(NC(=O)Cc2cccc(C(C)=O)c2)n1` [Example 30] had a melting point of 121 to 125 °C. Further, in “log p determination” (setting [6]), the logP was 1.87.

With `CC(=O)c1cccc(CC(=O)Nc2snc(C)c2Cl)c1` [Example 31, 5-[3-(acetylphenyl)-acetaminol]-4-chloro-3-methyl-isothiazole], the melting point lay within 77 to 83 °C. Moreover, the logP in the data set “log p determination” (setting [6]) came to 2.14.

For the origin of these results see patent publication US6403622B1, “Phenylacetic acid heterocyclyl amides having an insecticidal effect” (Bayer Aktiengesellschaft, priority 1998, dated 2002).
